Measurements as given in patent publication US20110064694A1, “ANTI-HEPATITIS C ACTIVITY OF MESO-TETRAKIS-PORPHYRIN ANALOGUES” (YALE UNIVERSITY, priority 2009, published 2011).
Where two headings read alike, the source gives them in different places.

What was measured:
[1] = tested on: HCV genotype 1b (Con 1 isolate) subgenomic replicon; assay: microbe, parasite or virus in culture; type: cell-based, Hepatitis C virus; settings: for improvement in anti-HCV EC50 over compound 2: relative to lead compound 2
Method: (§1) Cells. HCV genotype 1b (Con 1 isolate) subgenomic replicon cell line with luciferase reporter (Huh-luc/neo-ET) was kindly provided by Ralf Bartenschlager from the University of Heidelberg (37). Huh-luc/neo-ET cells were cultured in Dulbecco's modified Eagle medium (DMEM , supplemented with 10% fetal bovine serum (FBS), 1 mM nonessential amino acids, and 250 μg/ml of G418 (Invitrogen). Genotype 2a (JFH-I isolate) subgenomic replicon cells YSGR-JFH were cultured in DMEM containing 10 To fetal calf serum, 1 mM nonessential amino acids and 400 μg/ml G418 (31). An additional genotype 1b (Conl) replicon cell line (4291BBix) was cultured in similar media but with 3 μg/ml blasticidin (22).
(§2) Determination of antiviral activities. Ff-luciferase reporter activity was used to monitor the replication of HCV replicons in Huhluc/neo-ET cells free from G418. Replicon cells were seeded at the density of 5×10^3 cells per well in 96-well plates. The following day, replicon cells were incubated in duplicates with DMSO or serially diluted tetraphenylporphyrin (TPP) analogues at 37″C. 72 hrs after co-incubation, cells were lysed with ice-cold passive lysis reagent after PBS wash, and the luciferase activity was measured with the luciferase assay kit (Promega) and Tecan FARCyte luminometer (GE Healthcare) following the manufacturers' descriptions. The relative light units (RLU) were adjusted as percentage readings of the compound-free controls and the 50% effective concentration (EC50) was determined from dose-effect curve by nonlinear regression analysis using Origin 6.1 (OriginLab Software). TPP analogues were also screened in vitro against HIV-I IIIB and HBV as previously described (26,41). Briefly 1×10^3 MT-2 cells per well were exposed in triplets to 0.1TC1D50/cell (50% of the tissue culture infectious dose) of HIV-1 IIIB and cultured in the presence of compounds. The EC50 values were estimated by MTT-based colorimetric quantitation of viral CPE after 5 days. Anti-HBV activities were evaluated in 2.2.15 cells by means of Southern DNA hybridization.

HBV = assay: Anti-HBV activity in 2.2.15 cells by Southern DNA hybridization; type: cell-based; settings: read-out: Antiviral Activity EC50 HBV
Method: as §2

HIV-1 IIIB = assay: Anti-HIV activity in MT-2 cells, MTT quantitation of viral CPE; type: cell-based; settings: read-out: Antiviral Activity EC50 HIV-1 IIIB
Method: as §2

MT-2 cells = assay: Cytotoxicity in uninfected MT-2 cells; type: cell-based
Method: (§3) Determination of cytotoxicity and mitochondrial DNA toxicity. Exponentially growing Huh-7 cells were seeded at a density of 1×10^4 cells per well in a 24-well plate and incubated with TPP analogues for 3 days. Cells were fixed and stained with 0.5% methylene blue in 50% ethanol followed by extensive washing. After the plates were air dried, cells were solubilized in 1% sarkosyl and cell growth was determined from the extent of absorption by spectrophotometric measurements at 595 nm (Biotek Instruments). For compounds whose dark color interfered with 595-nm reading, cytotoxicity was measured by the CellTiter-Glo luminesecent cell viability assay following manufacturer's description (Promega). Cytotoxicity in MT-2 cells was determined from colorimetric quantitation of uninfected MT-2 cells after 5 days of coincubation.

Huh-7 cells = assay: Cytotoxicity in Huh-7 cells (methylene blue or CellTiter-Glo); type: cell-based
Method: as §3

[2] = tested on: mitochondrial DNA content of CEM cells; assay: Mitochondrial DNA toxicity, slot blot of CEM cell lysates; type: cell-based; settings: read-out: Mitochondrial DNA Toxicity IC50 CEM
Method: Quantitation of mitochondrial DNA content was performed as previously published (18). Briefly, CEM cell lysates were spotted onto Hybond paper using the Miliford II slot blot apparatus (Schleicher & Schuell). MTDNA was detected with mtDNA-specific probe and then reprobed with Alu probe for internal control. The autoradiographic bands were quantified on scanning densitometer (Molecular Dynamics).

CEM cells [3] = tested on: CEM cells
[4] = tested on: HCV genotype 1b (Con1) replicon; assay: Effect of serum concentration on anti-HCV activity, luciferase assay in Huh-luc/neo-ET cells; type: cell-based, Hepatitis C virus; settings: for EC50: 72 hrs; for Fold Change in EC50 5% FBS: EC50 at 5% FBS as one fold; for Fold Change in EC50 10% FBS / Fold Change in EC50 20% FBS / Fold Change in EC50 40% FBS: relative to EC50 at 5% FBS
Method: Cells were harvested after 72 hrs for luciferase activity assays.
Huh-luc/neo-ET cells were incubated with compound 1, 4 or 6 for 72 hrs and the anti-HCV activity was evaluated by measuring the reduction of reporter luciferase activities.

cytochrome c = cytochrome c (Equus caballus, UniProt P00004); settings: read-out: Kd, binding to cyt c; cited from earlier work
Sequence of cytochrome c (P00004 2-105 limits assumed): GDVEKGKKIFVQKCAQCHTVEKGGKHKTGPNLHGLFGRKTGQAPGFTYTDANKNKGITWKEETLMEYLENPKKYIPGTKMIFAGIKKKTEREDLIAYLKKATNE

[5] = Cytotoxicity in uninfected MT-2 cells; type: cell-based; settings: human; uninfected MT-2 cells, 5 days
Method: as §3

[6] = Cytotoxicity in Huh-7 cells (methylene blue or CellTiter-Glo); type: cell-based; settings: human; Huh-7 cells, 3 days
Method: as §3

[7] = tested on: HCV genotype 2a (JFH-1) replicon; assay: HCV RNA quantification by qRT-PCR in YSGR-JFH cells; type: cell-based, Hepatitis C virus; settings: Hepatitis C virus, 72 h, read-out: antiviral EC50 against YSGR-JFH replicon cells
Method: as §1
Activity of compound 6 against genotype 2a (JFH-I) replicons. In parallel to Huh-luc/neo-ET cells, 1×10^5 YSGR-JFH cells per well were incubated with DMSO control, compound 6, or recombinant human IFNα-2a (Pestka Biomedical Laboratories) in 6-well plates. Cells were harvested after 72 hrs of co-incubation and HCV RNAs were quantitated by qRT-PCR and normalized as described above.

[8] = Cytotoxicity in CEM cells; settings: human
CEM cells [9] = assay: Cytotoxicity in CEM cells; settings: read-out: Cytotoxicity CC50 CEM
[10] = Huh-luc/neo-ET, 72 hrs, luciferase, read-out: Antiviral Activity EC50 HCV

SMILES: O=C(O)c1cccc(-c2ccc(-c3c4nc(c(-c5ccc(-c6cccc(C(=O)O)c6)cc5)c5ccc([nH]5)c(-c5ccc(-c6cccc(C(=O)O)c6)cc5)c5nc(c(-c6ccc(-c7cccc(C(=O)O)c7)cc6)c6ccc3[nH]6)C=C5)C=C4)cc2)c1 [Compound 9]
- EC50 [1, 10]: 0.764 ± 0.06 µM
- EC50 (HBV): 8 µM
- EC50 (HIV-1 IIIB; MT-2 cells, 5 days): > 25 µM
- CC50 (MT-2 cells): > 25 µM
- CC50 (Huh-7 cells): 13 ± 0.7 µM
- IC50 ([2]; CEM cells): 22 µM
- CC50 (CEM cells [3]): 50 µM

SMILES: O=C(O)c1cc(C(=O)O)cc(-c2c3nc(c(-c4cc(C(=O)O)cc(C(=O)O)c4)c4ccc([nH]4)c(-c4cc(C(=O)O)cc(C(=O)O)c4)c4nc(c(-c5cc(C(=O)O)cc(C(=O)O)c5)c5ccc2[nH]5)C=C4)C=C3)c1 [Compound 3]
- EC50 [1, 10]: 13.6 ± 1.1 µM
- EC50 (HBV): 7 µM
- EC50 (HIV-1 IIIB; MT-2 cells, 5 days): > 100 µM
- CC50 (MT-2 cells): 22 µM
- CC50 (Huh-7 cells): > 50 µM
- IC50 ([2]; CEM cells): 25 µM
- CC50 (CEM cells [3]): > 50 µM

SMILES: O=C(O)c1ccc(-c2ccc(-c3c4nc(c(-c5ccc(-c6ccc(C(=O)O)cc6)cc5)c5ccc([nH]5)c(-c5ccc(-c6ccc(C(=O)O)cc6)cc5)c5nc(c(-c6ccc(-c7ccc(C(=O)O)cc7)cc6)c6ccc3[nH]6)C=C5)C=C4)cc2)cc1 [Compound 4, Tetracarboxybiphenylporphyrin]
- EC50 [1, 10]: 0.877 ± 0.0289 µM
- EC50 (HBV): > 10 µM
- EC50 (HIV-1 IIIB; MT-2 cells, 5 days): > 25 µM
- CC50 (MT-2 cells): > 25 µM
- CC50 (Huh-7 cells): 32.2 ± 4.14 µM
- IC50 ([2]; CEM cells): 6 µM
- EC50 ([4]; 5% FBS, read-out: EC50 5% FBS): 0.633 ± 0.176 µM
- EC50 ([4]; 40% FBS, read-out: EC50 40% FBS): 1.48 ± 0.015 µM
- Fold Change in EC50 5% FBS [4]: 1.00
- EC50 ([4]; extrapolation of the plot of EC50 vs serum amount, read-out: EC50 0% FBS (Theoretical)): 0.38 µM
- EC50 ([4]; read-out: EC50 10% FBS, 10% FBS): 0.877 ± 0.029 µM
- EC50 ([4]; read-out: EC50 20% FBS, 20% FBS): 1.21 ± 0.056 µM
- Fold Change in EC50 10% FBS [4]: 1.46 ± 0.42
- Fold Change in EC50 20% FBS [4]: 2.01 ± 0.52
- Fold Change in EC50 40% FBS [4]: 2.48 ± 0.74
- CC50 (CEM cells [3]): 10 µM
- Kd (cytochrome c): 17 ± 0.84 µM

SMILES: O=C(O)CNC(=O)c1cc(C(=O)NCC(=O)O)cc(-c2ccc(-c3c4nc(c(-c5ccc(-c6cc(C(=O)NCC(=O)O)cc(C(=O)NCC(=O)O)c6)cc5)c5ccc([nH]5)c(-c5ccc(-c6cc(C(=O)NCC(=O)O)cc(C(=O)NCC(=O)O)c6)cc5)c5nc(c(-c6ccc(-c7cc(C(=O)NCC(=O)O)cc(C(=O)NCC(=O)O)c7)cc6)c6ccc3[nH]6)C=C5)C=C4)cc2)c1 [Compound 7]
- EC50 [1, 10]: > 12.5 µM
- EC50 (HBV): > 10 µM
- EC50 (HIV-1 IIIB; MT-2 cells, 5 days): 1.05 ± 0.071 µM
- CC50 (MT-2 cells): 15 ± 4.24 µM
- CC50 (Huh-7 cells): 12.5 µM
- IC50 ([2]; CEM cells): 12.5 µM
- CC50 (CEM cells [3]): > 50 µM

SMILES: O=C(O)c1ccc(-c2c3nc(c(-c4ccc(C(=O)O)cc4)c4ccc([nH]4)c(-c4ccc(C(=O)O)cc4)c4nc(c(-c5ccc(C(=O)O)cc5)c5ccc2[nH]5)C=C4)C=C3)cc1 [Compound 1, Meso-Tetra(4-carboxyphenyl)porphine]
- EC50 ([1]; Hepatitis C virus, Huh-luc/neo-ET, 72 hrs, luciferase, read-out: Antiviral Activity EC50 HCV): 0.243 ± 0.0359 µM
- improvement in anti-HCV EC50 over compound 2 [1]: Over 7 fold
- EC50 (HBV; Hepatitis B virus): > 10 µM
- EC50 (HIV-1 IIIB; Human immunodeficiency virus 1, IIIB, MT2, 120 h): > 25 µM
- CC50 at 5 days [5]: > 25 µM
- CC50 at 3 days [6]: > 50 µM
- IC50 ([2]; Homo sapiens, CCRF-CEM): > 50 µM
- Fold Change in EC50 5% FBS [4]: 1.00
- EC50 ([4]; Hepatitis C virus, Huh-luc/neo-ET, read-out: EC50 10% FBS, 10% FBS): 0.243 ± 0.036 µM
- EC50 ([4]; Hepatitis C virus, Huh-luc/neo-ET, read-out: EC50 20% FBS, 20% FBS): 0.513 ± 0.069 µM
- EC50 ([4]; Hepatitis C virus, Huh-luc/neo-ET, 5% FBS, read-out: EC50 5% FBS): 0.124 ± 0.008 µM
- EC50 ([4]; Hepatitis C virus, Huh-luc/neo-ET, 40% FBS, read-out: EC50 40% FBS): 0.948 ± 0.089 µM
- EC50 ([4]; Hepatitis C virus, Huh-luc/neo-ET, extrapolation of the plot of EC50 vs serum amount, read-out: EC50 0% FBS (Theoretical)): 0.0482 µM
- Fold Change in EC50 10% FBS [4]: 1.95 ± 0.16
- Fold Change in EC50 20% FBS [4]: 4.16 ± 0.82
- Fold Change in EC50 40% FBS [4]: 7.62 ± 0.46
- EC50 [7]: 1.9 µM
- Kd (cytochrome c): 0.95 ± 0.25 µM
- CC50 [8]: 34 µM

SMILES: O=C(O)CNC(=O)c1ccc(-c2c3nc(c(-c4ccc(C(=O)NCC(=O)O)cc4)c4ccc([nH]4)c(-c4ccc(C(=O)NCC(=O)O)cc4)c4nc(c(-c5ccc(C(=O)NCC(=O)O)cc5)c5ccc2[nH]5)C=C4)C=C3)cc1 [Compound 2]
- EC50 [1, 10]: 1.8 ± 0.7 µM
- EC50 (HBV): > 10 µM
- EC50 (HIV-1 IIIB; MT-2 cells, 5 days): > 25 µM
- CC50 (MT-2 cells; uninfected MT-2 cells, 5 days, read-out: Cytotoxicity CC50 MT-2): 3.2 ± 1.13 µM
- CC50 (Huh-7 cells; Huh-7 cells, 3 days, read-out: Cytotoxicity CC50 Huh-7): > 50 µM
- IC50 ([2]; CEM cells): 15 ± 3.7 µM
- CC50 (CEM cells [9]): 27 ± 15.1 µM

SMILES: O=C(O)CNC(=O)c1ccc(-c2ccc(-c3c4nc(c(-c5ccc(-c6ccc(C(=O)NCC(=O)O)cc6)cc5)c5ccc([nH]5)c(-c5ccc(-c6ccc(C(=O)NCC(=O)O)cc6)cc5)c5nc(c(-c6ccc(-c7ccc(C(=O)NCC(=O)O)cc7)cc6)c6ccc3[nH]6)C=C5)C=C4)cc2)cc1 [Compound 5]
- EC50 [1, 10]: 0.148 ± 0.006 µM
- improvement in anti-HCV EC50 over compound 2 [1]: 12 fold
- EC50 (HBV): > 20 µM
- EC50 (HIV-1 IIIB; MT-2 cells, 5 days): 1.5 ± 0.436 µM
- CC50 (MT-2 cells): 13 ± 4.36 µM
- CC50 (Huh-7 cells): > 50 µM
- IC50 ([2]; CEM cells): > 50 µM
- CC50 (CEM cells [3]): > 50 µM

SMILES: C[N+](C)(C)c1ccc(-c2c3nc(c(-c4ccc([N+](C)(C)C)cc4)c4ccc([nH]4)c(-c4ccc([N+](C)(C)C)cc4)c4nc(c(-c5ccc([N+](C)(C)C)cc5)c5ccc2[nH]5)C=C4)C=C3)cc1 [TTMAPP, 5,10,I5,20-Tetrakis (4(trimethylammonio)-phenyl)-21H,23H-porphine, reference compound]
- EC50 ([1]; HCV replicons in vitro, read-out: anti-HCV EC50): 3.58 µM
